This note sets out measurements from patent publication EP4293019A1, “4-SUBSTITUTED (1H-BENZO[D]IMIDAZOL-2-YL)-1H-PYRAZOLES AS BUB1 INHIBITORS USEFUL FOR TREATING CANCERS” (Netherlands Translational Research Center Holding B.V., priority 2022, dated 2023).

The structures appear in SMILES notation.

In one experiment the test system is U2OS cells. In words: Cellular proliferation assay (SRB proliferation assay). It is filed as cell-based. The conditions noted are these: Homo sapiens, 72 h treatment, SRB staining, N=2, n=3. As to the method:
This protocol describes how the Cellular Proliferation Assay was performed to determine pIC50 values of compounds of general formula (I) against U2OS cells.
U2OS (human osteosarcoma) cells were purchased at ATCC and were tested on regular basis for mycoplasma contamination. Cultures were discarded after 2-3 months of use. Cells were cultured at 37°C under 7% CO2 in DMEM (Sigma Aldrich, D6546) supplemented with GlutaMAX (2 mM, ThermoFisher), 10% (v/v) heat-inactivated newborn calf serum (Seradigm), penicillin and streptomycin (200 µg/mL each, Duchefa) (complete medium). Medium was refreshed every 2-3 days and cells were passaged by trypsinization twice a week at 80-90% confluence. Cell viability was assessed by Trypan Blue exclusion and cell quantification using a TC20™ Automated Cell Counter (Bio-Rad).
Assays were performed in 96-well plates (Greiner, Cellstar, 655180) by seeding (day 0), treatment (day 1) and subsequent incubation for 72 h. Cells were fixed, stained and staining was subsequently dissolved after which absorbance was measured. Each assay included the following controls: (i) a background control (to which no cells were added), (ii) t0 controls (separate assay plate in which cells were fixed on day 1, used as 0% proliferation), (iii) nontreated controls (present in each assay plate, treated with vehicle and used as 100% proliferation). Cells were treated with different concentrations of indicated inhibitor. All inhibitors were tested in two separate assays and all inhibitor concentrations were tested in triplicate per assay (N=2, n=3).
For each assay, U2OS cells from 10 cm dishes were seeded into 96-well plates (3,000 cells/well) and subsequently incubated overnight to allow for cell adherence. Stocks of inhibitor and vehicle (all in DMSO) were diluted in complete medium to obtain 2x working solutions (1% DMSO). Cell medium was replaced by fresh complete medium (50 µL), treatment was started by addition of the 2x working solutions (50 µL) and plates were incubated at 37°C for 72 h. Cell medium was replaced by fresh serum free medium (100 µL) and cells were fixed by addition of 30 µL 50% (w/v) aq. trichloroacetic acid after which the plates were incubated at 4°C for 60 min. Wells were emptied by shaking the plates upside down after which wells were washed three times with demineralized water and air-dried overnight. To each well, 60 µL of SRB solution (0.4% (w/v) in 1% aq. acetic acid) was added and plates were incubated for 30 min. The excess SRB was removed and the wells were washed three times with 1% aq. acetic acid and air-dried overnight. Bound SRB was redissolved by addition of 150 µL 10 mM TRIS (free-base) and absorbance was measured at 540 nm on a CLARIOstar plate reader. Data was normalized between t0 and nontreated controls and plotted using GraphPad Prism 8.0 using "Nonlinear regression (curve fit)" and "log(inhibitor) vs. normalized response - Variable slope" to determine pIC50 values.
Inhibition is indicated as pIC50 ("-" = not measured). Compounds having an activity designated as "A" provided an pIC50 ≥ 6.0 (IC50 ≤1 µM); compounds having an activity designated as "B" provided an 5.3 ≤ pIC50 < 6.0 (1 µM<IC50 ≤ 5 µM); compounds having an activity designated as "C" provided an 5.0 ≤ pIC50 < 5.3 (5 µM < IC50 ≤ 10 µM); compounds having an activity designated as "D" provided an 5.0 < pIC50 ≤ 4.7 (10 µM < IC50 ≤ 20 µM); and compounds having an activity designated as "E" provided an pIC50 < 4.7 (IC50 >20 µM).
A general note: In SRB staining, fixed cells bind dye roughly in proportion to their protein.

The next experiment has as its target T1, hBUB1 (Homo sapiens, UniProt O43683).
T1 construct: purchased Carna Biosciences 05-187
In words: hBUB1 kinase activity assay (biochemical fluorescence polarization assay, IMAP). The conditions noted are these: BUB1/BUB3 3.26 nM, ATP 15 µM, BUB1/BUB3 substrate 75 nM; N=2, n=2; read-out: hBUB1 pIC50 (converted). As to the method: This protocol describes how the Kinase Activity Assay was performed to determine pIC50 values of compounds of general formula (I) against hBUB1.
Assays were performed in 384-well plates (Greiner, black, flat bottom, 781076) by sequential addition (final concentrations are indicated) of inhibitor (5 µL, 0.3 nM - 1 µM or 3 nM - 10 µM), BUB1/BUB3 (5 µL, 3.26 nM, Carna Biosciences (05-187), lot: 15CBS-0644 D), ATP (5 µL, 15 µM) and BUB1/BUB3 substrate (5 µL, 75 nM, Carna Biosciences (05-187MSSU)), all as 4x working solutions. The final concentration of DMSO was 1%. Assay reactions were stopped by addition of IMAP progressive binding reagent (20 µL, 1200x diluted, Molecular Devices (R8155), lot: 3117896). Each assay included the following controls: (i) a background control (treated with vehicle instead of inhibitor and BUB1/BUB3 substrate), (ii) MIN controls (treated with 5 µM BAY1816032 (MedChem Express) as inhibitor, used as 0% BUB1 activity) and (iii) MAX controls (treated with vehicle instead of inhibitor, used as 100% BUB1 activity). All inhibitors were tested in two separate assays and all inhibitor concentrations were tested in duplicate per assay (N=2, n=2).
For each assay, assay buffer (AB) was freshly prepared and consisted of 20 mM HEPES (prepared by diluting 1 M HEPES, pH 7.2), 5 mM MgCl2, 0.01% Tween-20 and 1 mM DTT. Stocks of inhibitors (in DMSO) were diluted in AB to obtain 4x working solutions (4% DMSO) and 5 µL was added to the assay plate. BUB1/BUB3 (3.26 µM (486 µg/mL) in storage buffer) was diluted in AB to obtain 13.0 nM of which 5 µL was added to all wells of the assay plate. The assay plate was centrifuged (1 min, 200 g) and incubated at RT for 30 min. ATP (4 mM in MilliQ) was diluted in AB to obtain 60 µM of which 5 µL was added to each well. BUB1/BUB3 substrate (1 mM) was diluted in 20 mM HEPES (prepared by diluting 1 M HEPES (pH 7.2) in MilliQ) to obtain 80 µM (this solution was freshly prepared every assay) and further diluted in AB to obtain 300 nM after which 5 µL was added to each well of the assay plate except for background control wells. The assay plate was centrifuged (1 min, 200 g) and incubated at RT in the dark for 180 min. IMAP progressive binding buffer A (5x) and IMAP progressive binding buffer B (5x) were mixed in a ratio to obtain 30% buffer A and 70% buffer B, which was subsequently diluted 5x in MilliQ. IMAP progressive binding reagent was diluted 600x in aforementioned mixture of buffer A and B (to obtain a 2x working solution) of which 20 µL was added to each well of the assay plate. The assay plate was centrifuged (1 min, 200 g) and incubated at RT in the dark for 90 min. Fluorescence polarization was measured on a CLARIOstar plate reader using the following settings: (i) optic settings → excitation = F: 482-16, dichroic = F: LP 504, emission = F: 530-40, (ii) optic = top optic, (iii) speed/precision = maximum precision, (iv) focus adjustment was performed for every assay and (v) gain adjustment was done by setting the target mP value to 35 mP for one of the MIN control wells. Data was normalized between MIN and MAX controls and data was plotted using GraphPad Prism 8.0 using "Nonlinear regression (curve fit)" and "log(inhibitor) vs. normalized response - Variable slope" to determine pIC50 values.
Inhibition is indicated as pIC50 ("-" = not measured). Compounds having an activity designated as "A" provided an pIC50 ≥ 7.0 (IC50 ≤100 nM); compounds having an activity designated as "B" provided an 6.3 ≤ pIC50 < 7.0 (100 nM<IC50 ≤ 500 nM); compounds having an activity designated as "C" provided an 6.0 ≤ pIC50 < 6.3 (500 nM < IC50 ≤ 1 µM); compounds having an activity designated as "D" provided an 6.0 < pIC50 ≤ 5.0 (1 µM < IC50 ≤ 10 µM); and compounds having an activity designated as "E" provided an pIC50 < 5.0 (IC50 >10 µM).

T1 sequence (O43683 whole entry): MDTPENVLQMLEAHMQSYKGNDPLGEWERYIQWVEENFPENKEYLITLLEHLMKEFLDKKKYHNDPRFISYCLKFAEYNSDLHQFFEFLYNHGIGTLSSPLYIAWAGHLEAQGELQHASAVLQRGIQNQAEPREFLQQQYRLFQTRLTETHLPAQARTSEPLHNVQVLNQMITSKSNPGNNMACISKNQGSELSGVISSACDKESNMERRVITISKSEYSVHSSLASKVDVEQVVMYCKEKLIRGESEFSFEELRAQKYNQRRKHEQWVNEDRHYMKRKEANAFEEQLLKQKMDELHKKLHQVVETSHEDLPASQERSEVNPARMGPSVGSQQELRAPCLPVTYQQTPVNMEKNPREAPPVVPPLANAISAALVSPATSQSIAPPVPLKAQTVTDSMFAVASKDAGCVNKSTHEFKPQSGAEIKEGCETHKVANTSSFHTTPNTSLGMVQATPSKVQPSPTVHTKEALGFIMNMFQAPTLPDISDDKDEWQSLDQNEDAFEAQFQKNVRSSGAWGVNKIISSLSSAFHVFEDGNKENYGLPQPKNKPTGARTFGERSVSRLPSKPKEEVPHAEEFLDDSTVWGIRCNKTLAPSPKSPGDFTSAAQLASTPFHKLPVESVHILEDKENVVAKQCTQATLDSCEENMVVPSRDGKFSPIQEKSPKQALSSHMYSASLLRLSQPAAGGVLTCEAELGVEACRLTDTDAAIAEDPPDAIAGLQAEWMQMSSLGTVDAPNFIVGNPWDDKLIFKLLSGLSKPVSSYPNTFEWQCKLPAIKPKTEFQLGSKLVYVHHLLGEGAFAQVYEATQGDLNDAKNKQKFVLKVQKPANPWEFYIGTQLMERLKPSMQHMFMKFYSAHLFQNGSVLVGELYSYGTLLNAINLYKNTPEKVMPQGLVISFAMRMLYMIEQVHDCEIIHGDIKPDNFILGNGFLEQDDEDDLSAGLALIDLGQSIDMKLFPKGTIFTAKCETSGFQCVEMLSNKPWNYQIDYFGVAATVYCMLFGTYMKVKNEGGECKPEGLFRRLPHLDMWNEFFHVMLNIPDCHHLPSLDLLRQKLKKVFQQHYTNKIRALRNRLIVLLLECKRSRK
T1 sequence (O43684 whole entry partner): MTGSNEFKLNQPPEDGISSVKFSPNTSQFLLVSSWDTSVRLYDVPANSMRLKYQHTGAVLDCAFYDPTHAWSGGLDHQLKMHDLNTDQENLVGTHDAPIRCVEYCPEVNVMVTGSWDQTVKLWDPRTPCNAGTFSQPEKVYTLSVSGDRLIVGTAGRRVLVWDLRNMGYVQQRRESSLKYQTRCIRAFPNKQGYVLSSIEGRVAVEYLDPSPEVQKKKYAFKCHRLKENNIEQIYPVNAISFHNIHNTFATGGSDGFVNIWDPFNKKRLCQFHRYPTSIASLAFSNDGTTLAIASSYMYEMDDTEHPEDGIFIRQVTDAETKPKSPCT

On to `COc1cnc(-c2cccc(C#N)c2)nc1Nc1c[nH]nc1-c1nc2cc(CN3CCOCC3)ccc2[nH]1` [Compound 54, 3-(5-Methoxy-4-((3-(5-(morpholinomethyl)-1H-benzo[d]imidazol-2-yl)-1H-pyrazol-4-yl)amino)pyrimidin-2-yl)benzonitrile], for which the results for the IC50 in the experiment with U2OS cells and on hBUB1 were 10000 to 20000 nM and no more than 100 nM, respectively.

Regarding `COc1cnc(-c2cccc(Cl)c2F)nc1Nc1c[nH]nc1-c1nc2cc(CN3CCOCC3)ccc2[nH]1` [Compound 55, 2-(3-Chloro-2-fluorophenyl)-5-methoxy-N-(3-(5-(morpholinomethyl)-1H-benzo[d]imidazol-2-yl)-1H-pyrazol-4-yl)pyrimidin-4-amine], the IC50 was no more than 1000 nM with U2OS cells and no more than 100 nM on hBUB1.

Turning to `C#Cc1cccc(-c2ncc(OC)c(Nc3c[nH]nc3-c3nc4cc(CN5CCOCC5)ccc4[nH]3)n2)c1F` [Compound 56, 2-(3-Ethynyl-2-fluorophenyl)-5-methoxy-N-(3-(5-(morpholinomethyl)-1H-benzo[d]imidazol-2-yl)-1H-pyrazol-4-yl)pyrimidin-4-amine], the IC50 with U2OS cells was no more than 1000 nM; at hBUB1, no more than 100 nM.

As for `COc1cnc(-c2cc(Cl)ccc2F)nc1Nc1c[nH]nc1-c1nc2cc(CN3CCOCC3)ccc2[nH]1` [Compound 57, 2-(5-Chloro-2-fluorophenyl)-5-methoxy-N-(3-(5-(morpholinomethyl)-1H-benzo[d]imidazol-2-yl)-1H-pyrazol-4-yl)pyrimidin-4-amine], the IC50 in the experiment on U2OS cells is no more than 1000 nM; on hBUB1, no more than 100 nM.

For `C#Cc1ccc(F)c(-c2ncc(OC)c(Nc3c[nH]nc3-c3nc4cc(CN5CCOCC5)ccc4[nH]3)n2)c1` [Compound 58, 2-(5-Ethynyl-2-fluorophenyl)-5-methoxy-N-(3-(5-(morpholinomethyl)-1H-benzo[d]imidazol-2-yl)-1H-pyrazol-4-yl)pyrimidin-4-amine], the IC50 with U2OS cells is no more than 1000 nM; at hBUB1, no more than 100 nM.

For the compound `COc1cnc(-c2c(F)ccc(Cl)c2F)nc1Nc1c[nH]nc1-c1nc2cc(CN3CCOCC3)ccc2[nH]1` [Compound 59, 2-(3-Chloro-2,6-difluorophenyl)-5-methoxy-N-(3-(5-(morpholinomethyl)-1H-benzo[d]imidazol-2-yl)-1H-pyrazol-4-yl)pyrimidin-4-amine], the IC50 is no more than 1000 nM with U2OS cells and no more than 100 nM on hBUB1.

Take `C#Cc1ccc(F)c(-c2ncc(OC)c(Nc3c[nH]nc3-c3nc4cc(CN5CCOCC5)ccc4[nH]3)n2)c1F` [Compound 60, 2-(3-Ethynyl-2,6-difluorophenyl)-5-methoxy-N-(3-(5-(morpholinomethyl)-1H-benzo[d]imidazol-2-yl)-1H-pyrazol-4-yl)pyrimidin-4-amine]: the IC50 in the experiment with U2OS cells was no more than 1000 nM; at hBUB1, no more than 100 nM.

Take `COc1cnc(-c2ccc(F)cc2)nc1Nc1c[nH]nc1-c1nc2cc(CN3CCOCC3)ccc2[nH]1` [Compound 61, 2-(4-Fluorophenyl)-5-methoxy-N-(3-(5-(morpholinomethyl)-1H-benzo[d]imidazol-2-yl)-1H-pyrazol-4-yl)pyrimidin-4-amine]: the IC50 in the experiment on U2OS cells is no more than 1000 nM; at hBUB1, 100 to 501 nM.
